Assay results as given in PubChem BioAssay (NCI).
Where “and” joins values, the source holds several entries; their conditions need not be identical. Identical values can stand only once.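 These data come from cells grown in 96-well plates and exposed to compound for 48 hours at five concentrations. Here, GI50 denotes the concentration required for 50% inhibition of growth. TGI: concentration producing complete growth inhibition.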

What was measured:
Test in all cases: NCI tumour cell line growth inhibition, 48 h
XF 498 CNS = test system: XF 498 CNS
SF-268 CNS = test system: SF-268 CNS
LXFL 529 NSCLC = test system: LXFL 529 NSCLC
RXF 393 renal = test system: RXF 393 renal
SF-539 CNS = test system: SF-539 CNS
HOP-18 NSCLC = test system: HOP-18 NSCLC
RXF-631 renal = test system: RXF-631 renal
CAKI-1 renal = test system: CAKI-1 renal
HCT-116 colon = test system: HCT-116 colon
SK-MEL-2 melanoma = test system: SK-MEL-2 melanoma
SNB-75 CNS = test system: SNB-75 CNS
LOX IMVI melanoma = test system: LOX IMVI melanoma
TK-10 renal = test system: TK-10 renal
M14 melanoma = test system: M14 melanoma
HOP-92 NSCLC = test system: HOP-92 NSCLC
UO-31 renal = test system: UO-31 renal
786-0 renal = test system: 786-0 renal
M19-MEL melanoma = test system: M19-MEL melanoma
SF-295 CNS = test system: SF-295 CNS
OVCAR-3 ovarian = test system: OVCAR-3 ovarian
DLD-1 colon = test system: DLD-1 colon
IGROV1 ovarian = test system: IGROV1 ovarian
EKVX NSCLC = test system: EKVX NSCLC
A498 renal = test system: A498 renal
SR leukemia = test system: SR leukemia
KM12 colon = test system: KM12 colon
HOP-62 NSCLC = test system: HOP-62 NSCLC
OVCAR-5 ovarian = test system: OVCAR-5 ovarian
NCI-H522 lung = test system: NCI-H522 lung
KM20L2 colon = test system: KM20L2 colon
SW-620 colon = test system: SW-620 colon
SNB-19 CNS = test system: SNB-19 CNS
U251 CNS = test system: U251 CNS
OVCAR-8 ovarian = test system: OVCAR-8 ovarian
SK-OV-3 ovarian = test system: SK-OV-3 ovarian
HT29 colon = test system: HT29 colon
K-562 leukemia = test system: K-562 leukemia
RPMI-8226 leukemia = test system: RPMI-8226 leukemia
MALME-3M melanoma = test system: MALME-3M melanoma
MOLT-4 leukemia = test system: MOLT-4 leukemia
MDA-MB-231 breast = test system: MDA-MB-231 breast
UACC-257 melanoma = test system: UACC-257 melanoma
HL-60(TB) leukemia = test system: HL-60(TB) leukemia
CCRF-CEM leukemia = test system: CCRF-CEM leukemia
HCC-2998 colon = test system: HCC-2998 colon
OVCAR-4 ovarian = test system: OVCAR-4 ovarian
NCI-H23 lung = test system: NCI-H23 lung
HCT-15 colon = test system: HCT-15 colon
A549 NSCLC = test system: A549 NSCLC
SK-MEL-28 melanoma = test system: SK-MEL-28 melanoma
BT-549 breast = test system: BT-549 breast
ACHN renal = test system: ACHN renal
NCI-H460 lung = test system: NCI-H460 lung
SK-MEL-5 melanoma = test system: SK-MEL-5 melanoma
T-47D breast = test system: T-47D breast
DU-145 prostate = test system: DU-145 prostate
NCI-H226 lung = test system: NCI-H226 lung
DMS 114 small cell lung = test system: DMS 114 small cell lung
UACC-62 melanoma = test system: UACC-62 melanoma
SNB-78 CNS = test system: SNB-78 CNS
COLO 205 colon = test system: COLO 205 colon
DMS 273 small cell lung = test system: DMS 273 small cell lung
SN12C renal = test system: SN12C renal

For `CC(=O)OCC1OC(n2c(=S)n(-c3ccccc3)c(=S)c3ccccc32)C(OC(C)=O)C(OC(C)=O)C1OC(C)=O` (configuration not stated), the GI50 (XF 498 CNS) was 28.3 µM and 4.4 µM, the TGI (XF 498 CNS) was greater than 100000 nM and the GI50 (SF-268 CNS) was 77.9 µM and 9.64 µM. The TGI (SF-268 CNS) was greater than 100 µM, the GI50 (LXFL 529 NSCLC) was 62.3 µM and 8.58 µM and the TGI (LXFL 529 NSCLC) was greater than 100 µM. The GI50 (RXF 393 renal) was 38.4 µM and 4.04 µM, the TGI (RXF 393 renal) was greater than 100 µM and the TGI (SF-539 CNS) was greater than 100000 nM. The TGI (HOP-18 NSCLC) was greater than 100 µM, the TGI (RXF-631 renal) was greater than 100 µM and the GI50 (CAKI-1 renal) was 50.7 µM and 20 µM. For the same molecule, the TGI (CAKI-1 renal) was greater than 100 µM, the TGI (HCT-116 colon) was greater than 100 µM and the GI50 (SK-MEL-2 melanoma) was 78.6 µM and > 35.8 µM. The TGI (SK-MEL-2 melanoma) was greater than 100 µM, the TGI (SNB-75 CNS) was greater than 100000 nM and the GI50 (LOX IMVI melanoma) was 60.4 µM and 19.7 µM. The TGI (LOX IMVI melanoma) was greater than 100 µM, the TGI (TK-10 renal) was greater than 100 µM and the TGI (M14 melanoma) was greater than 100000 nM. The TGI (HOP-92 NSCLC) was greater than 100000 nM, the TGI (UO-31 renal) was greater than 100000 nM and the TGI (786-0 renal) was greater than 100 µM.
`COC1C(O)CC(OC2CC(OC3CC(O[C@@H]4C(=O)c5c(cc6cc(OC7CC(OC8CC(O)C(O)C(C)O8)C(O)C(C)O7)c(C)c(O)c6c5O)C[C@H]4[C@H](OC)C(=O)[C@@H](O)[C@@H](C)O)OC(C)C3O)OC(C)C2O)OC1C` (some centres not stated) showed a TGI (M19-MEL melanoma) greater than 100 µM, a TGI (SF-295 CNS) greater than 20.3 µM and a TGI (OVCAR-3 ovarian) of 101 nM. For the same molecule, the TGI (DLD-1 colon) was greater than 100 µM, the GI50 (IGROV1 ovarian) was 36.3 nM and the TGI (IGROV1 ovarian) was greater than 100 µM. The TGI (EKVX NSCLC) was 8.06 µM, the TGI (XF 498 CNS) was 191 nM and the GI50 (A498 renal) was less than 10 nM. It also gave a TGI (A498 renal) of 82.7 nM, a TGI (SF-268 CNS) greater than 94 µM and a TGI (SR leukemia) of 558 nM. The TGI (KM12 colon) was greater than 12 µM, the TGI (HOP-62 NSCLC) was 3.87 µM and the TGI (OVCAR-5 ovarian) was 564 nM. The TGI (LXFL 529 NSCLC) was greater than 100 µM, the TGI (NCI-H522 lung) was 35.8 nM and the TGI (SF-539 CNS) was 31.2 nM. It also gave a TGI (KM20L2 colon) of 533 nM, a TGI (SW-620 colon) greater than 100 µM and a TGI (SNB-19 CNS) greater than 11.1 µM. It also gave a TGI (U251 CNS) greater than 9.45 µM, a TGI (HOP-18 NSCLC) of 36 µM and a TGI (OVCAR-8 ovarian) greater than 100 µM. The TGI (SK-OV-3 ovarian) was greater than 100 µM, the TGI (HT29 colon) was greater than 56 µM and the GI50 (K-562 leukemia) was less than 19 nM. It also gave a TGI (K-562 leukemia) greater than 100 µM, a TGI (CAKI-1 renal) greater than 100 µM and a TGI (HCT-116 colon) greater than 100 µM. It also gave a TGI (RPMI-8226 leukemia) of 383 nM, a TGI (MALME-3M melanoma) of 243 nM and a TGI (MOLT-4 leukemia) of 222 nM. For the same molecule, the TGI (MDA-MB-231 breast) was greater than 100 µM, the TGI (UACC-257 melanoma) was 931 nM and the TGI (SK-MEL-2 melanoma) was less than 0.0205 µM. The GI50 (HL-60(TB) leukemia) was less than 21.5 nM, the TGI (HL-60(TB) leukemia) was 1570 nM and the TGI (SNB-75 CNS) was 447 nM. The GI50 (CCRF-CEM leukemia) was 32.9 nM, the TGI (CCRF-CEM leukemia) was greater than 100 µM and the TGI (HCC-2998 colon) was 114 nM. It also gave a TGI (OVCAR-4 ovarian) greater than 100 µM, a GI50 (NCI-H23 lung) of less than 18.9 nM and a TGI (NCI-H23 lung) of less than 44.2 nM. For the same molecule, the TGI (HCT-15 colon) was 22 µM, the TGI (A549 NSCLC) was greater than 100 µM and the TGI (SK-MEL-28 melanoma) was 22.4 nM. The GI50 (LOX IMVI melanoma) was 0.0164 µM, the TGI (LOX IMVI melanoma) was greater than 100 µM and the TGI (BT-549 breast) was 11.2 µM. The TGI (ACHN renal) was greater than 100 µM, the TGI (TK-10 renal) was greater than 39.8 µM and the TGI (NCI-H460 lung) was 4.34 µM. For the same molecule, the TGI (SK-MEL-5 melanoma) was 32 nM, the TGI (T-47D breast) was 203 nM and the TGI (DU-145 prostate) was 281 nM. It also gave a TGI (M14 melanoma) of 116 nM, a TGI (NCI-H226 lung) of less than 215 nM and a TGI (HOP-92 NSCLC) of 1060 nM. The TGI (DMS 114 small cell lung) was 4.5 µM, the TGI (UACC-62 melanoma) was 265 nM and the TGI (UO-31 renal) was 150 nM. The TGI (786-0 renal) was greater than 100 µM, the TGI (SNB-78 CNS) was greater than 100 µM and the TGI (COLO 205 colon) was 92.1 nM. For the same molecule, the TGI (DMS 273 small cell lung) was 1670 nM and the TGI (SN12C renal) was greater than 60.5 µM.
